Results: patent publication US9533952B2, “N-prop-2-ynyl carboxamide derivatives and their use as TRPA1 antagonists” (Orion Corporation, priority 2012, dated 2017)

target: TRPA1 (Homo sapiens, UniProt O75762); assay: Determination of TRPA1 activity in vitro (TRPA1 antagonism in vitro); format: cell-based; details: procedure of Wei et al., Anesthesiology 111 (2009) 147-154
Sequence (O75762 whole entry): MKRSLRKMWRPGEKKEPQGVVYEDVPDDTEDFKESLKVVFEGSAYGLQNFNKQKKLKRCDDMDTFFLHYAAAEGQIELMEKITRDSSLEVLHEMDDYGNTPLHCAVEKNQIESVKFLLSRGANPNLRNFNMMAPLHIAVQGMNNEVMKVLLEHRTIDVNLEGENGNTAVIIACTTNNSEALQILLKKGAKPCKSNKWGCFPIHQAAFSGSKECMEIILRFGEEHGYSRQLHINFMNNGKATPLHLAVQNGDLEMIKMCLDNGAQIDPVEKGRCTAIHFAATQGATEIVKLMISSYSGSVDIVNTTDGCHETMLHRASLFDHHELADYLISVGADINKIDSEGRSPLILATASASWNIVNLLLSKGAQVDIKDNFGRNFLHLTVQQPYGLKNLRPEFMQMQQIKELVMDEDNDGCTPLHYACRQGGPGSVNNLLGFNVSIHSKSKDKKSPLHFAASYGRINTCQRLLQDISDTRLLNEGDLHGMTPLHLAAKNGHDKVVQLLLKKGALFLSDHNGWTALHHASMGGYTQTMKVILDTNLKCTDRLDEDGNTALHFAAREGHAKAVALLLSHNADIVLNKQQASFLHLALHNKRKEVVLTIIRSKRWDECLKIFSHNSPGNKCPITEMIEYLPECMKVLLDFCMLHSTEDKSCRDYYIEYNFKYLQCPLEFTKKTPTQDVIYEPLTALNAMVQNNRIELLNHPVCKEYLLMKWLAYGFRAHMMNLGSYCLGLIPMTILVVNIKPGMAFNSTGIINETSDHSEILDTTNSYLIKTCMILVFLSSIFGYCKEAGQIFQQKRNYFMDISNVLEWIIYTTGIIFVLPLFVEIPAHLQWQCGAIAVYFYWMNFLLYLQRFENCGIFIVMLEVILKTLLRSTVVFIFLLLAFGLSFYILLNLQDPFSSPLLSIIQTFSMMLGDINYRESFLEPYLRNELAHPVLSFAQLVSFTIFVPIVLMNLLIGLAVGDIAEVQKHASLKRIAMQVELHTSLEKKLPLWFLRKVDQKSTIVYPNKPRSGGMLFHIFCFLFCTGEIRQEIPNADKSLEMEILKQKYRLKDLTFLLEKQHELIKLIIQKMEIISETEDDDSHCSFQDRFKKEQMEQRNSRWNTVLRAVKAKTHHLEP

IC50 [nM]	Structure (SMILES)
7100	C#CC(C)(C)NC(=O)c1cc(OCC)ccc1NCCC [Example 154, 5-Ethoxy-N-(2-methylbut-3-yn-2-yl)-2-(propylamino)benzamide]
800	C#CC(C)(C)NC(=O)c1cc(Cl)cnc1NC(C)(C)C [Example 155, 2-(tert-Butylamino)-5-chloro-N-(2-methylbut-3-yn-2-yl)nicotinamide]
1600	C#CC(C)(C)NC(=O)c1cc(F)cnc1NC1CC(F)(F)C1 [Example 156, 2-(3,3-Difluorocyclobutylamino)-5-fluoro-N-(2-methylbut-3-yn-2-yl)nicotinamide]
700	C#CC(C)(C)NC(=O)c1cc(F)cnc1Nc1ccc(F)cc1 [Example 157, 5-Fluoro-2-(4-fluorophenylamino)-N-(2-methylbut-3-yn-2-yl)nicotinamide]
4000	C#CC(C)(C)NC(=O)c1cc(F)cnc1NC(C)C(F)(F)F (stereo not drawn) [Example 158, 5-Fluoro-N-(2-methylbut-3-yn-2-yl)-2-(1,1,1-trifluoropropan-2-ylamino)nicotinamide]
11400	C#CC(C)(C)NC(=O)c1cnccc1Nc1ccc(Cl)cc1 [Example 159, 4-(4-Chlorophenylamino)-N-(2-methylbut-3-yn-2-yl)nicotinamide]
1400	C#CC(C)(C)NC(=O)c1cc(F)cnc1Nc1ccccc1 [Example 160, 5-Fluoro-N-(2-methylbut-3-yn-2-yl)-2-(phenylamino)nicotinamide]
1300	C#CC(C)(C)NC(=O)c1cncnc1Nc1ccc(C(F)(F)F)cc1 [Example 161, N-(2-Methylbut-3-yn-2-yl)-4-(4-(trifluoromethyl)phenylamino)-pyrimidine-5-carboxamide]
3700	C#CC(C)(C)NC(=O)c1cc(F)cnc1NC(C)(C)C [Example 162, 2-(tert-Butylamino)-5-fluoro-N-(2-methylbut-3-yn-2-yl)nicotinamide]
100	C#CC(CC)(CC)NC(=O)c1cc(F)cnc1NC1CC(F)(F)C1 [Example 163, 2-(3,3-Difluorocyclobutylamino)-N-(3-ethylpent-1-yn-3-yl)-5-fluoronicotinamide]
100	C#CC(C)(CC)NC(=O)c1cc(F)cnc1NC1CC(F)(F)C1 (stereo not drawn) [Example 164, 2-(3,3-Difluorocyclobutylamino)-5-fluoro-N-(3-methylpent-1-yn-3-yl)nicotinamide]
4000	C#CC(C)(C)NC(=O)c1cccnc1Nc1cc(F)cc(OC)c1 [Example 165, 2-(3-Fluoro-5-methoxyphenylamino)-N-(2-methylbut-3-yn-2-yl)nicotinamide]
600	C#CC(C)(CC)NC(=O)c1cccnc1Nc1cc(F)cc(OC)c1 (stereo not drawn) [Example 166, 2-(3-Fluoro-5-methoxyphenylamino)-N-(3-methylpent-1-yn-3-yl)nicotinamide]
3200	C#CC(C)(C)NC(=O)c1cccnc1Nc1cc(Cl)cc(OC)c1 [Example 167, 2-(3-Chloro-5-methoxyphenylamino)-N-(2-methylbut-3-yn-2-yl)nicotinamide]
800	C#CC(C)(CC)NC(=O)c1cccnc1Nc1cc(Cl)cc(OC)c1 (stereo not drawn) [Example 168, 2-(3-Chloro-5-methoxyphenylamino)-N-(3-methylpent-1-yn-3-yl)nicotinamide]
34800	C#CC(C)(C)NC(=O)c1cccnc1Nc1cccc(OC)c1F [Example 169, 2-(2-Fluoro-3-methoxyphenylamino)-N-(2-methylbut-3-yn-2-yl)nicotinamide]
4900	C#CC(C)(CC)NC(=O)c1cccnc1Nc1cccc(OC)c1F (stereo not drawn) [Example 170, 2-(2-Fluoro-3-methoxyphenylamino)-N-(3-methylpent-1-yn-3-yl)nicotinamide]
300	C#CC(C)(CC)NC(=O)c1cc(F)cnc1Nc1ccc(F)cc1 (stereo not drawn) [Example 171, 5-Fluoro-2-(4-fluorophenylamino)-N-(3-methylpent-1-yn-3-yl)nicotinamide]
300	C#CC(C)(CC)NC(=O)c1cc(F)cnc1Nc1ccccc1 (stereo not drawn) [Example 172, 5-Fluoro-N-(3-methylpent-1-yn-3-yl)-2-(phenylamino)nicotinamide]
1900	C#CC(C)(C)NC(=O)c1cccnc1Nc1ccc(F)cc1F [Example 173, 2-(2,4-Difluorophenylamino)-N-(2-methylbut-3-yn-2-yl)nicotinamide]
400	C#CC(C)(CC)NC(=O)c1cccnc1Nc1ccc(F)cc1F (stereo not drawn) [Example 174, 2-(2,4-Difluorophenylamino)-N-(3-methylpent-1-yn-3-yl)nicotinamide]
900	C#CC(C)(C)NC(=O)c1cc(F)cnc1Nc1cccc(F)c1 [Example 175, 5-Fluoro-2-(3-fluorophenylamino)-N-(2-methylbut-3-yn-2-yl)nicotinamide]
300	C#CC(C)(CC)NC(=O)c1cc(F)cnc1Nc1cccc(F)c1 (stereo not drawn) [Example 176, 5-Fluoro-2-(3-fluorophenylamino)-N-(3-methylpent-1-yn-3-yl)nicotinamide]

IC50 [nM]	Structure (SMILES)
300	C#CC(C)(CC)NC(=O)c1cc(Cl)cnc1NC1CC(F)(F)C1 (stereo not drawn) [Example 177, 5-Chloro-2-(3,3-difluorocyclobutylamino)-N-(3-methylpent-1-yn-3-yl)nicotinamide]
900	C#CC(C)(CC)NC(=O)c1cc(F)cnc1Nc1cccc(C#N)c1 (stereo not drawn) [Example 178, 2-(3-Cyanophenylamino)-5-fluoro-N-(3-methylpent-1-yn-3-yl)nicotinamide]
10800	C#CC(C)(C)NC(=O)c1cccnc1Nc1cc(OC)ccc1F [Example 179, 2-(2-Fluoro-5-methoxyphenylamino)-N-(2-methylbut-3-yn-2-yl)nicotinamide]
1400	C#CC(C)(CC)NC(=O)c1cccnc1Nc1cc(OC)ccc1F (stereo not drawn) [Example 180, 2-(2-Fluoro-5-methoxyphenylamino)-N-(3-methylpent-1-yn-3-yl)nicotinamide]
2700	C#CC(C)(C)NC(=O)c1cccnc1Nc1ccc(F)c(C#N)c1 [Example 181, 2-(3-Cyano-4-fluorophenylamino)-N-(2-methylbut-3-yn-2-yl)nicotinamide]
500	C#CC(C)(CC)NC(=O)c1cccnc1Nc1ccc(F)c(C#N)c1 (stereo not drawn) [Example 182, 2-(3-Cyano-4-fluorophenylamino)-N-(3-methylpent-1-yn-3-yl)nicotinamide]
1400	C#CC(C)(C)NC(=O)c1cccnc1Nc1cc(F)cc(C#N)c1 [Example 183, 2-(3-Cyano-5-fluorophenylamino)-N-(2-methylbut-3-yn-2-yl)nicotinamide]
200	C#CC(C)(CC)NC(=O)c1cccnc1Nc1cccc(F)c1 (stereo not drawn) [Example 184, 2-(3-Fluorophenylamino)-N-(3-methylpent-1-yn-3-yl)nicotinamide]
500	C#CC(C)(CC)NC(=O)c1cccnc1Nc1ccccc1F (stereo not drawn) [Example 185, 2-(2-Fluorophenylamino)-N-(3-methylpent-1-yn-3-yl)nicotinamide]
200	C#CC(C)(CC)NC(=O)c1cccnc1Nc1cc(F)cc(F)c1 (stereo not drawn) [Example 186, 2-(3,5-Difluorophenylamino)-N-(3-methylpent-1-yn-3-yl)nicotinamide]
400	C#CC(C)(CC)NC(=O)c1cccnc1Nc1cc(F)cc(C#N)c1 (stereo not drawn) [Example 187, 2-(3-Cyano-5-fluorophenylamino)-N-(3-methylpent-1-yn-3-yl)nicotinamide]
16700	C#CC(C)(C)NC(=O)c1cccnc1Nc1cc(OC)ccc1Cl [Example 188, 2-(2-Chloro-5-methoxyphenylamino)-N-(2-methylbut-3-yn-2-yl)nicotinamide]
3000	C#CC(C)(CC)NC(=O)c1cccnc1Nc1cc(OC)ccc1Cl (stereo not drawn) [Example 189, 2-(2-Chloro-5-methoxyphenylamino)-N-(3-methylpent-1-yn-3-yl)nicotinamide]
400	C#CC(C)(CC)NC(=O)c1cccnc1Nc1ccccc1 (stereo not drawn) [Example 190, N-(3-Methylpent-1-yn-3-yl)-2-(phenylamino)nicotinamide]
600	C#CC(C)(CC)NC(=O)c1cccnc1NC1CCC(F)(F)CC1 (stereo not drawn) [Example 191, 2-(4,4-Difluorocyclohexylamino)-N-(3-methylpent-1-yn-3-yl)nicotinamide]
700	C#CC(C)(CC)NC(=O)c1cccnc1Nc1ccc(OC)c(Cl)c1 (stereo not drawn) [Example 192, 2-(3-Chloro-4-methoxyphenylamino)-N-(3-methylpent-1-yn-3-yl)nicotinamide]
11100	C#CC(C)(C)NC(=O)c1cccnc1Nc1ccc(F)c(OC)c1 [Example 193, 2-(4-Fluoro-3-methoxyphenylamino)-N-(2-methylbut-3-yn-2-yl)nicotinamide]
1600	C#CC(C)(CC)NC(=O)c1cccnc1Nc1ccc(F)c(OC)c1 (stereo not drawn) [Example 194, 2-(4-Fluoro-3-methoxyphenylamino)-N-(3-methylpent-1-yn-3-yl)nicotinamide]
100	C#CC(C)(CC)NC(=O)c1cccnc1Nc1ccc(F)c(F)c1 (stereo not drawn) [Example 195, 2-(3,4-Difluorophenylamino)-N-(3-methylpent-1-yn-3-yl)nicotinamide]
3200	C#CC(C)(C)NC(=O)c1cccnc1Nc1ccc(Cl)c(OC)c1 [Example 196, 2-(4-Chloro-3-methoxyphenylamino)-N-(2-methylbut-3-yn-2-yl)nicotinamide]
700	C#CC(C)(CC)NC(=O)c1cccnc1Nc1ccc(Cl)c(OC)c1 (stereo not drawn) [Example 197, 2-(4-Chloro-3-methoxyphenylamino)-N-(3-methylpent-1-yn-3-yl)nicotinamide]
200	C#CC(C)(CC)NC(=O)c1cccnc1Nc1ccc(F)cc1 (stereo not drawn) [Example 198, 2-(4-Fluorophenylamino)-N-(3-methylpent-1-yn-3-yl)nicotinamide]
